Reference: patent US9572799B2, “Pyrazolopyridine derivatives for use in the treatment of bladder cancer” (SANOFI, priority 2013, dated 2017)
Counter-ions that a name gives are not always drawn.

How the values were obtained:
[1] = tested on: TCC97-7 bladder cancer cells carrying the Ser249Cys mutation of FGF-R3; assay: Reduction of intracellular ATP content of TCC97-7 cells in serum-supplemented medium (Cell Titer-Glo); format: cell-based; conditions: 72 h, TCC97-7 cells cultured in the presence of serum, after 3 days, read-out: Inhibition of the amount of intracellular ATP (%)
Experimental: Evaluation of the Capacity of FGF-R Antagonists to Reduce the ATP Content of TCC97-7 Bladder Cancer Cells Carrying the Ser249Cys Mutation of FGF-R3, Cultured in a Serum-Supplemented Medium
To do this, 3000 cells are seeded in 50 μl of complete medium (Ham-F/12, 1% FCS, 2 mM glutamine, non-essential amino acids, sodium pyruvate, 1% insulin/transferrin/selenium, hydrocortisone). 16 hours later, 50 μl of the various compounds are added at 2 and 20 μM after dilution in complete culture medium in order to obtain final concentrations of 1 and 10 μM. After 3 days, the ATP content of the cells is measured using the Cell Titer-Glo® Luminescent Cell Viability Assay kit (Promega, France) according to the supplier's recommendations. The percentage inhibition of the amount of intracellular ATP is calculated by considering the ATP content of the cells cultured in the absence of antagonist to be 0% inhibition. 100% inhibition would correspond to a well in which the ATP content is zero.
Thus, compounds 1 to 24 are capable of inhibiting the amount of intracellular ATP in TCC97-7 cells by more than 20% at the dose of 1 or 10 μM (Table No. 3).

[2] = tested on: bladder cancer tumour cells of TCC97-7 type carrying the Ser249Cys mutation of FGF receptor 3; assay: Inhibition of serum-induced proliferation of TCC97-7 bladder cancer cells (cell-covered surface area, Incucyte); format: cell-based; conditions: 72 h, TCC97-7 cell line in the presence of serum, after 3 days
Experimental: Evaluation of the Capacity of the FGF-R Antagonists to Inhibit Serum-Induced Proliferation of Bladder Cancer Tumour Cells of TCC97-7 Type Carrying the Ser249Cys Mutation of FGF Receptor 3
To do this, 2000 cells are seeded in the morning in 50 μl of complete medium (Ham-F/12, 1% FCS, 2 mM glutamine, non-essential amino acids, sodium pyruvate, 1% insulin/transferrin/selenium, hydrocortisone). In the evening, 50 μl of the various compounds are added at 2 or 20 μM after dilution in complete culture medium in order to obtain final concentrations of 1 or 10 μM. After 3 days, cell proliferation is evaluated by measuring the cell-covered surface area of a well of a 96 well plate. This surface area is measured using an Incucyte apparatus (Essen BioScience). The percentage inhibition of the cell proliferation is calculated by considering the surface area occupied by the TCC97-7 cells cultured in the absence of FGF-R antagonists to be 0% inhibition. 100% inhibition would correspond to a well no longer containing cells.
Thus, compounds 1 to 24 are capable of inhibiting TCC97-7 cell proliferation by more than 20% at the dose of 1 or 10 μM. (Table No. 2).

Row | SMILES | inhibition at 1 µM [1] [%] | inhibition at 10 µM [1] [%] | inhibition at 1 µM [2] [%] | inhibition at 10 µM [2] [%] | melting point [°C]
1 | O=C(c1ccc(-c2cc(C(F)F)c3c(-c4ccccc4)n[nH]c3n2)cc1)N1CCCC1 [compound 5, [4-(4-Difluoromethyl-3-phenyl-1H-pyrazolo[3,4-b]pyridin-6-yl)phenyl]pyrrolidin-1-ylmethanone hydrochloride] | 37.1 | 40.8 | 45.7 | 19.5 | 
2 | O=C(c1ccc(-c2cc(C(F)F)c3c(-c4ccccc4)n[nH]c3n2)cc1)N1CCCC1 (as salt: hydrochloride) [compound 5, [4-(4-Difluoromethyl-3-phenyl-1H-pyrazolo[3,4-b]pyridin-6-yl)phenyl]pyrrolidin-1-ylmethanone hydrochloride] |  |  |  |  | 248
3 | N#Cc1cc(-c2cc(C(F)(F)F)c3c(-c4ccccc4)nn(CCN4CCCCC4)c3n2)ccc1N [compound 10, 2-Amino-5-[3-phenyl-1-(2-piperidin-1-ylethyl)-4-trifluoromethyl-1H-pyrazolo[3,4-b]pyridin-6-yl]benzonitrile] | 11 | 94.4 | 22.8 | 85.9 | 
4 | Cn1nc(-c2ccccc2)c2c(C(F)(F)F)cc(-c3cccc(C(N)=O)c3)nc21 [compound 1, 3-(1-methyl-3-phenyl-4-trifluoromethyl-1H-pyrazolo[3,4-b]pyridin-6-yl)benzamide] | 10.9 | 41.1 | 8 | 91.6 | 
5 | COc1ncc(-c2cc(C(F)(F)F)c3c(-c4ccccc4)nn(C)c3n2)cc1C#N [compound 9, 2-Methoxy-5-(1-methyl-3-phenyl-4-trifluoromethyl-1H-pyrazolo[3,4-b]pyridin-6-yl)nicotinonitrile] | 12.3 | 69.3 | 27.6 | 79.7 | 250
6 | FC(F)(F)c1cc(-c2ccc(N3CCOCC3)cc2)nc2[nH]nc(-c3ccccc3)c12 [compound 24, 6-(4-Morpholin-4-ylphenyl)-3-phenyl-4-trifluoromethyl-1H-pyrazolo[3,4-b]pyridine hydrochloride] | 6 | 27 |  |  | 
7 | CN(C)CCn1nc(-c2ccccc2)c2c(C(F)(F)F)cc(-c3ccc(N)c(C#N)c3)nc21 [compound 8, 2-Amino-5-[1-(2-dimethylamino-ethyl)-3-phenyl-4-trifluoromethyl-1H-pyrazolo[3,4-b]pyridin-6-yl]benzonitrile] | 27.7 | 97.8 | 10.8 | 95.2 | 
8 | N#Cc1cc(-c2cc(C(F)F)c3c(-c4ccccc4)n[nH]c3n2)ccc1N [compound 22, 2-Amino-5-(4-difluoromethyl-3-phenyl-1H-pyrazolo[3,4-b]pyridin-6-yl)benzonitrile hydrochloride] | 27 | 53 |  |  | 
9 | COc1cccc(-c2n[nH]c3nc(-c4ccc(N)c(C#N)c4)cc(C(F)F)c23)c1 [compound 12, 2-Amino-5-[4-difluoromethyl-3-(3-methoxyphenyl)-1H-pyrazolo[3,4-b]pyridin-6-yl]benzonitrile] | 23.8 | 75.8 | 12.1 | 95.8 | 233
10 | N#Cc1cc(-c2cc(C(F)F)c3c(-c4ccccc4)n[nH]c3n2)ccc1N (as salt: hydrochloride) [compound 22, 2-Amino-5-(4-difluoromethyl-3-phenyl-1H-pyrazolo[3,4-b]pyridin-6-yl)benzonitrile hydrochloride] |  |  |  |  | 282
11 | Cn1nc(-c2ccccc2)c2c(C(F)(F)F)cc(-c3ccc(C(=O)O)cc3)nc21 [compound 23, 4-(1-Methyl-3-phenyl-4-trifluoromethyl-1H-pyrazolo[3,4-b]pyridin-6-yl)benzoic acid] | 17 | 40 | 8 | 33 | 
12 | O=C(c1cccc(-c2cc(C(F)F)c3c(-c4ccccc4)n[nH]c3n2)c1)N1CCCC1 [compound 6, [3-(4-Difluoromethyl-3-phenyl-1H-pyrazolo[3,4-b]pyridin-6-yl)phenyl]pyrrolidin-1-ylmethanone hydrochloride] | 26.9 | 90.5 | 16.2 | 83.9 | 
13 | CN(C)C(=O)c1cccc(-c2cc(C(F)(F)F)c3c(-c4ccccc4)nn(C)c3n2)c1 [compound 4, N,N-Dimethyl-3-(1-methyl-3-phenyl-4-trifluoromethyl-1H-pyrazolo[3,4-b]pyridin-6-yl)benzamide] | 23.7 | 49.6 | 5 | 64.4 | 
14 | N#Cc1cc(-c2cc(C(F)F)c3c(-c4cccnc4)n[nH]c3n2)ccc1N [compound 11, 2-Amino-5-(4-difluoromethyl-3-pyridin-3-yl-1H-pyrazolo[3,4-b]pyridin-6-yl)benzonitrile] | 21.5 | 25.5 | 50.4 | 19.2 | 296
15 | Cn1nc(-c2ccccc2)c2c(C(F)(F)F)cc(-c3cccc(NS(C)(=O)=O)c3)nc21 [compound 21, N-[3-(1-Methyl-3-phenyl-4-trifluoromethyl-1H-pyrazolo[3,4-b]pyridin-6-yl)phenyl]methanesulphonamide] | -1 | 25 | -3 | 61 | 
16 | N#Cc1cc(-c2cc(C(F)(F)F)c3c(-c4ccccc4)n[nH]c3n2)ccc1F [compound 20, 2-Fluoro-5-(3-phenyl-4-trifluoromethyl-1H-pyrazolo[3,4-b]pyridin-6-yl)benzonitrile] | 11 | 26 |  |  | 
17 | CN(C)c1ccc(-c2cc(C(F)(F)F)c3c(-c4ccccc4)n[nH]c3n2)cc1 [compound 19, Dimethyl-[4-(3-phenyl-4-trifluoromethyl-1H-pyrazolo[3,4-b]pyridin-6-yl)phenyl]amine] | 30 | 63 |  |  | 
18 | Nc1ccc(-c2cc(C(F)(F)F)c3c(-c4ccccc4)n[nH]c3n2)cc1 [compound 16, 4-(3-Phenyl-4-trifluoromethyl-1H-pyrazolo[3,4-b]pyridin-6-yl)phenylamine] | 24 | 38 |  |  | 237
19 | FC(F)c1cc(-c2cccc(N3CCCCC3)c2)nc2[nH]nc(-c3ccccc3)c12 [compound 7, 4-Difluoromethyl-3-phenyl-6-(3-piperidin-1-ylphenyl)-1H-pyrazolo[3,4-b]pyridine hydrochloride] | 20.4 | 78 | -50.3 | 52.2 | 
20 | CNC(=O)c1cc(-c2cc(C(F)(F)F)c3c(-c4ccccc4)nn(C)c3n2)ccc1F [compound 2, 2-Fluoro-N-methyl-5-(1-methyl-3-phenyl-4-trifluoromethyl-1H-pyrazolo[3,4-b]pyridin-6-yl)benzamide] | 17.9 | 35.9 | 4 | 53.2 | 
21 | CN(C)CCn1nc(-c2ccccc2)c2c(C(F)F)cc(-c3ccc(N)c(C#N)c3)nc21 [compound 14, 2-Amino-5-[4-difluoromethyl-1-(2-dimethylaminoethyl)-3-phenyl-1H-pyrazolo[3,4-b]pyridin-6-yl]benzonitrile] | 32 | 77 |  |  | 
22 | CNC(=O)c1cccc(-c2cc(C(F)(F)F)c3c(-c4ccccc4)n[nH]c3n2)c1 [compound 17, N-Methyl-3-(3-phenyl-4-trifluoromethyl-1H-pyrazolo[3,4-b]pyridin-6-yl)benzamide hydrochloride] | 13 | 69 |  |  | 
23 | CS(=O)(=O)Nc1cccc(-c2cc(C(F)(F)F)c3c(-c4ccccc4)n[nH]c3n2)c1 [compound 13, N-[3-(3-Phenyl-4-trifluoromethyl-1H-pyrazolo[3,4-b]pyridin-6-yl)phenyl]methanesulphonamide hydrochloride] | 56 | 63 | 0 | 57 | 
